# Measurements as given in ChEMBL document CHEMBL4814052, “Isatin-derived azoles as new potential antimicrobial agents: Design, synthesis and biological evaluation” (2021).
# Assays:
# Type in all cases: functional
# [1] = tested on: Pseudomonas aeruginosa; assay: Antibacterial activity against Pseudomonas aeruginosa ATCC 27853 by broth microdilution method
# [2] = tested on: Klebsiella pneumoniae; assay: Antibacterial activity against Klebsiella pneumonia by broth microdilution method
# [3] = tested on: Escherichia coli; assay: Antibacterial activity against Escherichia coli ATCC 25922 by broth microdilution method
# [4] = tested on: Staphylococcus aureus; assay: Antibacterial activity against Staphylococcus aureus ATCC 29213 by broth microdilution method
# [5] = tested on: Acinetobacter baumannii; assay: Antibacterial activity against Acinetobacter baumannii by broth microdilution method
# [6] = tested on: Pseudomonas aeruginosa; assay: Antibacterial activity against Pseudomonas aeruginosa by broth microdilution method
# [7] = tested on: Staphylococcus aureus; assay: Antibacterial activity against Staphylococcus aureus by broth microdilution method
# [8] = tested on: Staphylococcus aureus; assay: Antibacterial activity against methicillin resistant Staphylococcus aureus by broth microdilution method
# [9] = tested on: Escherichia coli; assay: Antibacterial activity against Escherichia coli by broth microdilution method
# [10] = tested on: Enterococcus faecalis; assay: Antibacterial activity against Enterococcus faecalis by broth microdilution method
# [11] = tested on: Staphylococcus aureus; assay: Antibacterial activity against Staphylococcus aureus ATCC 25923 by broth microdilution method
Compound,MIC [1],MIC [2],MIC [3],MIC [4],MIC [5],MIC [6],MIC [7],MIC [8],MIC [9],MIC [10],MIC [11]
O=C(CC1(O)C(=O)N(CCn2cncn2)c2ccccc21)c1ccc(O)cc1 (stereo not given),256 µg/mL,256 µg/mL,256 µg/mL,256 µg/mL,512 µg/mL,256 µg/mL,256 µg/mL,256 µg/mL,256 µg/mL,256 µg/mL,256 µg/mL
O=C(/C=C1\C(=O)N(CCn2cncn2)c2ccccc21)c1ccccc1,128 µg/mL,64 µg/mL,8 µg/mL,128 µg/mL,128 µg/mL,32 µg/mL,128 µg/mL,256 µg/mL,64 µg/mL,128 µg/mL,128 µg/mL
O=C(/C=C1\C(=O)N(CCn2cncn2)c2ccccc21)c1ccc(O)cc1,256 µg/mL,256 µg/mL,256 µg/mL,32 µg/mL,64 µg/mL,256 µg/mL,128 µg/mL,256 µg/mL,128 µg/mL,128 µg/mL,128 µg/mL
CCCc1nccn1CCN1C(=O)C(=O)c2ccccc21,256 µg/mL,128 µg/mL,64 µg/mL,16 µg/mL,32 µg/mL,128 µg/mL,64 µg/mL,128 µg/mL,64 µg/mL,128 µg/mL,256 µg/mL
Cc1ccc(C(=O)/C=C2\C(=O)N(CCn3cncn3)c3ccccc32)cc1,512 µg/mL,256 µg/mL,256 µg/mL,256 µg/mL,32 µg/mL,128 µg/mL,64 µg/mL,128 µg/mL,64 µg/mL,256 µg/mL,8 µg/mL
Cc1ncc([N+](=O)[O-])n1CCN1C(=O)C(=O)c2ccccc21,256 µg/mL,64 µg/mL,128 µg/mL,128 µg/mL,128 µg/mL,64 µg/mL,128 µg/mL,128 µg/mL,128 µg/mL,128 µg/mL,256 µg/mL
O=C(CC1(O)C(=O)N(CCn2cncn2)c2ccccc21)c1ccc(Cl)cc1 (stereo not given),128 µg/mL,256 µg/mL,512 µg/mL,128 µg/mL,64 µg/mL,512 µg/mL,128 µg/mL,128 µg/mL,128 µg/mL,256 µg/mL,256 µg/mL
O=C1C(=O)N(CCn2cnc([N+](=O)[O-])c2)c2ccccc21,256 µg/mL,64 µg/mL,64 µg/mL,32 µg/mL,32 µg/mL,64 µg/mL,128 µg/mL,256 µg/mL,128 µg/mL,128 µg/mL,64 µg/mL
Cc1cc2ncn(CCN3C(=O)C(=O)c4ccccc43)c2cc1C,256 µg/mL,128 µg/mL,256 µg/mL,128 µg/mL,32 µg/mL,256 µg/mL,256 µg/mL,128 µg/mL,256 µg/mL,256 µg/mL,256 µg/mL
O=C1C(=O)N(CCn2ccnn2)c2ccccc21,128 µg/mL,256 µg/mL,128 µg/mL,256 µg/mL,32 µg/mL,128 µg/mL,32 µg/mL,256 µg/mL,256 µg/mL,128 µg/mL,256 µg/mL
O=C1C(=O)N(CCn2nnc3ccccc32)c2ccccc21,256 µg/mL,256 µg/mL,128 µg/mL,256 µg/mL,128 µg/mL,256 µg/mL,256 µg/mL,128 µg/mL,128 µg/mL,512 µg/mL,256 µg/mL
O=C1C(O)c2ccccc2N1CCn1cncn1 (stereo not given),128 µg/mL,128 µg/mL,256 µg/mL,64 µg/mL,64 µg/mL,256 µg/mL,128 µg/mL,128 µg/mL,128 µg/mL,128 µg/mL,64 µg/mL
O=C(/C=C1\C(=O)N(CCn2cncn2)c2ccccc21)c1ccc(Cl)cc1,512 µg/mL,128 µg/mL,64 µg/mL,64 µg/mL,> 512 µg/mL,512 µg/mL,512 µg/mL,32 µg/mL,512 µg/mL,32 µg/mL,128 µg/mL
O=C1C(=O)N(CCn2cncn2)c2ccccc21,64 µg/mL,128 µg/mL,8 µg/mL,32 µg/mL,128 µg/mL,128 µg/mL,128 µg/mL,256 µg/mL,32 µg/mL,128 µg/mL,128 µg/mL
O=C1C(=O)N(CCn2cnc3ccccc32)c2ccccc21,256 µg/mL,128 µg/mL,256 µg/mL,256 µg/mL,128 µg/mL,512 µg/mL,64 µg/mL,256 µg/mL,256 µg/mL,256 µg/mL,256 µg/mL
